Only the 19 paired bases of each siRNA are shown; overhangs and chemistry are not given here.
What follows are substances tested against ICAM1 (assay: five studies, different assays). Settings: siRNA.
Substance “sense CCUACCAGCUCCAGACCUU / antisense AAGGUCUGGAGCUGGUAGG” has a target inhibition of 45%.
With “sense GGGACAGGGCCUCUUCCUC / antisense GAGGAAGAGGCCCUGUCCC” the target inhibition was 52%.
With “sense CCAGACUUCCUUUGUGUUA / antisense UAACACAAAGGAAGUCUGG” the target inhibition was 48%.
In the case of “sense CCAUGGUACCUGCACACCU / antisense AGGUGUGCAGGUACCAUGG”, the target inhibition is reported as 75%.
“sense AACACACAAGCCACGCCUC / antisense GAGGCGUGGCUUGUGUGUU” gave a target inhibition of 1%.
“sense GACGUGUGCAGUAAUACUG / antisense CAGUAUUACUGCACACGUC” gave a target inhibition of 30%.
For “sense UUGCACUAUUGCAGCUCCA / antisense UGGAGCUGCAAUAGUGCAA”, the target inhibition was 5%.
Substance “sense CCAUGAAACCGAACACACA / antisense UGUGUGUUCGGUUUCAUGG” has a target inhibition of 59%.
In the case of “sense CAUUGGCCAACCUGCCUUU / antisense AAAGGCAGGUUGGCCAAUG”, the target inhibition is reported as 28%.
In the case of “sense GGAGCUUCGUGUCCUGUAU / antisense AUACAGGACACGAAGCUCC”, the target inhibition is reported as 58%.
Work on “sense GGUCCUAGAGGUGGACACG / antisense CGUGUCCACCUCUAGGACC” yielded a target inhibition of 10%.
With “sense CCUCUUGGCAGCCAGUGGG / antisense CCCACUGGCUGCCAAGAGG” the target inhibition was 18%.
With “sense AGCUCCUGCUGAAGGCCAC / antisense GUGGCCUUCAGCAGGAGCU” the target inhibition was 10%.
“sense UCCAUAGACAUGUGUAGCA / antisense UGCUACACAUGUCUAUGGA” was tested, and the target inhibition was 63%.
Work on “sense UAGGCUCACAACACCACAC / antisense GUGUGGUGUUGUGAGCCUA” yielded a target inhibition of 41%.
Work on “sense GAUUCUGACGAAGCCAGAG / antisense CUCUGGCUUCGUCAGAAUC” yielded a target inhibition of -10%.
With “sense AAGGAGUUGCUCCUGCCUG / antisense CAGGCAGGAGCAACUCCUU” the target inhibition was -15%.
In the case of “sense UGACGGAUGCCAGCUUGGG / antisense CCCAAGCUGGCAUCCGUCA”, the target inhibition is reported as 29%.
“sense ACACUGCAGGAGAGUGCCU / antisense AGGCACUCUCCUGCAGUGU” showed a target inhibition of 0%.
With “sense UCACAGGUUCAGAGAUUAC / antisense GUAAUCUCUGAACCUGUGA” the target inhibition was 34%.
“sense UGAACCUAUCCCGGGACAG / antisense CUGUCCCGGGAUAGGUUCA” was tested, and the target inhibition was 20%.
For “sense GGAUGCCAGCUUGGGCACU / antisense AGUGCCCAAGCUGGCAUCC”, the target inhibition was 40%.
“sense AAGUCUAGCCUGAUGAGAG / antisense CUCUCAUCAGGCUAGACUU” was tested, and the target inhibition was 50%.
For “sense AGUGAUCCUCCCACCUCAG / antisense CUGAGGUGGGAGGAUCACU”, the target inhibition was 45%.
With “sense CCAACCAAUGUGCUAUUCA / antisense UGAAUAGCACAUUGGUUGG” the target inhibition was 7%.
“sense CGGAUGCCAGCUUGGGCAC / antisense GUGCCCAAGCUGGCAUCCG” was tested, and the target inhibition was 24%.
Substance “sense CCAGGUCCACCUGGCACUG / antisense CAGUGCCAGGUGGACCUGG” has a target inhibition of 21%.
Substance “sense GCUCAAGUGUCUAAAGGAU / antisense AUCCUUUAGACACUUGAGC” has a target inhibition of 40%.
Substance “sense CCAUGAGGACAUACAACUG / antisense CAGUUGUAUGUCCUCAUGG” has a target inhibition of 58%.
Work on “sense GUCAUCAUCACUGUGGUAG / antisense CUACCACAGUGAUGAUGAC” yielded a target inhibition of 35%.
“sense GCCACACUGAACAGAGUGG / antisense CCACUCUGUUCAGUGUGGC” was tested, and the target inhibition was 21%.

Each substance was assayed against LMNA (assay: five studies, different assays). Settings: siRNA.
Substance “sense GUGGCCAUGCGCAAGCUGG / antisense CCAGCUUGCGCAUGGCCAC” has a target inhibition of 74%.
Work on “sense CAAGUCCAAUGAGGACCAG / antisense CUGGUCCUCAUUGGACUUG” yielded a target inhibition of 79%.
Work on “sense GCCAAAGAAAAAUAACCCU / antisense AGGGUUAUUUUUCUUUGGC” yielded a target inhibition of 96%.
With “sense AGUAUAAGAAGGAGCUGGA / antisense UCCAGCUCCUUCUUAUACU” the target inhibition was 95%.
Note: test concentration or dose not given here.
